Earlier results as cited in patent US8183203B2, “Methods for treating pulmonary hypertension and compositions comprising vasoactive intestinal peptide” (Avant Garde Therapeutics & Technologies LLC, priority 1999, dated 2012).

Key:
[1] = system: dogs left in ventricular fibrillation; conditions: four dogs, ventricular fibrillation for seven minutes, 4 μg/kg IV bolus, then defibrillated
Na+ channels = conditions: isolated rabbit ventricular myocytes, acute

Compound	time to peak action (onset of inotropic action) (isolated rat hearts)	maximum dp/dt (contractility) after a bolus injection (isolated rat hearts)	dogs successfully resuscitated [1]	burst mode gating of Na+ channels (Na+ channels)
CC(C)NCC(O)c1ccc(O)c(O)c1 (stereo not drawn) [isoproterenol]	60 s	also increased	–	–
N[C@@H](Cc1cc(I)c(Oc2ccc(O)c(I)c2)c(I)c1)C(=O)O [T3, 3,5,3′ triiodothyronine]	15 s	rapidly and significantly increased	Three out of four	acutely increased
